The RepoRT retention time repository (doi:10.1016/j.foodchem.2021.129757)
Counter-ions that a name gives are not always drawn.

Key:
Conditions in all cases: stereoisomer not certain
[1] = RP, Agilent InfinityLab Poroshell 120 EC-C18, 100 × 3 mm, 2.7 µm, 25 °C, 0.4 mL/min, estimated dead time 1.1 min; A: water + 0.1% formic acid, pH 3; B: acetonitrile + 0.1% formic acid, pH 3; gradient (min/%B) 0/5 10/25 20/40 24/90 25/90 26/5 30/5
[2] = RP, Waters ACQUITY UPLC BEH C18, 100 × 2.1 mm, 1.7 µm, 65 °C, 0.4 mL/min, estimated dead time 0.55 min; A: water + 0.1% formic acid, pH 3; B: 80% acetonitrile + 20% acetone + 0.1% formic acid, pH 3; gradient (min/%B) 0/0 5/100 5.5/0 6/0
[3] = RP, Agilent ZORBAX RRHD Eclipse Plus C18, 50 × 2.1 mm, 1.8 µm, 30 °C, 0.4 mL/min, estimated dead time 0.28 min; A: water + 0.1% formic acid, pH 3; B: acetonitrile + 0.1% formic acid, pH 3; gradient (min/%B) 0/1 5/10 8/25 9.1/99 10/99 12/1
[4] = RP, Agilent ZORBAX RRHD Eclipse Plus C18, 50 × 2.1 mm, 1.8 µm, 30 °C, 0.4 mL/min, estimated dead time 0.28 min; A: water + 0.1% formic acid, pH 3; B: acetonitrile + 0.1% formic acid, pH 3; gradient (min/%B) 0/1 5/10 8/25 9.1/99 10/99 12/99
[5] = RP, Agilent ZORBAX Eclipse XDB-C18, 100 × 2.1 mm, 1.8 µm, 50 °C, 0.4 mL/min, estimated dead time 0.55 min; A: water + 0.1% formic acid, pH 3; B: methanol + 0.1% formic acid, pH 3; gradient (min/%B) 0/2 10/100 14.5/100 14.51/2 16.5/2
[6] = RP, Waters ACQUITY UPLC HSS T3, 100 × 2.1 mm, 1.8 µm, 30 °C, 0.4 mL/min, estimated dead time 0.55 min; A: water + 0.1% formic acid, pH 3; B: acetonitrile + 0.1% formic acid, pH 3; gradient (min/%B) 0/0 2/0 15/100 22/100 22.1/0 26/0

SMILES | LC retention time [1] | LC retention time [2] | also measured
O=c1oc2cc(O)ccc2c2c(O)c(O)c(O)cc12 [Urolithin M6] | 9.62 min | – | –
O=C(O)C1OC(Oc2ccc(-c3coc4cc(O)ccc4c3=O)cc2)C(O)C(O)C1O (centres undefined) [Daidzein 4'-O-glucuronide] | 8.83 min | – | –
Cc1cc(C(=O)O)ccc1O [4-Hydroxy-3-methylbenzoic acid] | – | 2.03 min | –
O=C1c2ccccc2C(=O)c2c1cc(O)c(CO)c2O [lucidin] | 18.6 min | – | –
O=C(O)C=Cc1ccc(OC2OC(C(=O)O)C(O)C(O)C2O)cc1 (centres undefined) [p-Coumaric acid-4-O-glucuronide] | – | – | LC retention time [3]: 3.8 min; LC retention time [4]: 1.85 min
O=c1c(-c2ccc(O)cc2)coc2cc(OS(=O)(=O)O)ccc12 [Daidzein sulfate] | 9.85 min | – | –
O=C(O)c1ccc2ccccc2n1 [Quinaldic acid] | – | 1.68 min | –
O=C(O)C1OC(Oc2ccc(-c3coc4cc(O)cc(O)c4c3=O)cc2)C(O)C(O)C1O (centres undefined) [Genistein 4'-O-glucuronide] | 10.7 min | – | –
O=C(O)C=Cc1ccc(O)c(OS(=O)(=O)O)c1 [Caffeic acid-3-O-sulfate] | – | – | LC retention time [3]: 4.86 min; LC retention time [4]: 3.99 min
O=C(O)C1OC(Oc2cc(O)c3c(=O)c(-c4ccc(O)cc4)coc3c2)C(O)C(O)C1O (centres undefined) [Genistein 7-O-glucuronide] | 9.6 min | 2.1 min | –
CC12C=Cc3occc3C1CCC13CC(CCC12)C(O)(CO)C3 (centres undefined) [Kahweol] | – | 3.73 min | –
COc1cc(C(O)C(=O)O)ccc1O (centres undefined) [Vanillylmandelic acid] | – | 1.42 min | LC retention time [5]: 1.65 min
O=C1CCC(Cc2ccc(O)c(OS(=O)(=O)O)c2)O1 (centres undefined) | 6.5 min | – | –
O=c1oc2cc(O)ccc2c2c(O)cc(O)cc12 [Urolithin M7] | 11.2 min | – | –
CC(O)(CCO)CC(=O)[O-] (centres undefined) [Mevalonic acid] | – | 1.35 min | –
COc1cc(CCC(=O)O)ccc1OC1OC(C(=O)O)C(O)C(O)C1O (centres undefined) [Dihydroferulic acid-4-O-glucuronide] | – | – | LC retention time [3]: 5.64 min; LC retention time [4]: 5.15 min
COc1c(O)cccc1OS(=O)(=O)O [2-Methyl-pyrogallol-O-sulfate] | – | – | LC retention time [3]: 2.89 min; LC retention time [4]: 1.12 min
O=C1CCCCN1 [2-Piperidinone] | – | 1.37 min | –
COc1ccc(CCC(=O)O)cc1O [Dihydroisoferulic acid] | – | – | LC retention time [3]: 7.68 min; LC retention time [4]: 5.06 min
O=C1OCC(Cc2cccc(O)c2)C1Cc1cccc(O)c1 (centres undefined) [Enterolactone] | 17.4 min | 2.88 min | –
COc1ccc(C2CC(=O)c3c(O)cc(OS(=O)(=O)O)cc3O2)cc1O (centres undefined) [Hesperetin 7-sulfate] | 12.6 min | – | –

SMILES | LC retention time [1] | LC retention time [2] | also measured
O=C1CCC(Cc2ccc(OS(=O)(=O)O)c(O)c2)O1 (centres undefined) | – | – | LC retention time [3]: 6.09 min; LC retention time [4]: 5.42 min
COc1ccc(C2CC(=O)c3c(O)cc(O)cc3O2)cc1OS(=O)(=O)O (centres undefined) [Hesperetin 3'-O-sulfate] | 13.3 min | – | –
Oc1cc(O)c2c(c1)OC(c1ccc(O)c(O)c1)C(O)C2 (single isomer, unassigned; (+)) [(+)-Catechin] | – | – | LC retention time [4]: 4.65 min
COc1ccc(CCC(=O)O)cc1OS(=O)(=O)O [Dihydro isoferulic acid-3-O-sulfate] | – | – | LC retention time [3]: 6.39 min; LC retention time [4]: 5.06 min
COc1cc(CC(COC2OC(CO)C(O)C(O)C2O)C(COC2OC(CO)C(O)C(O)C2O)Cc2ccc(O)c(OC)c2)ccc1O (centres undefined) [Secoisolariciresinol diglucoside] | 8.08 min | – | –
COc1ccc(C(=O)O)c(O)c1 [2-hydroxy-4-methoxybenzoic acid] | – | – | LC retention time [3]: 8.98 min
O=C(O)C1OC(Oc2ccc3c(c2)oc(=O)c2ccc(O)cc23)C(O)C(O)C1O (centres undefined) [Isourolithin A glucuronide] | 8.44 min | – | –
O=C(O)C1OC(Oc2cc(O)c3c(=O)c(O)c(-c4ccc(O)c(O)c4)oc3c2)C(O)C(O)C1O (centres undefined) [Quercetin-7-O-glucuronide] | – | – | LC retention time [3]: 7.84 min; LC retention time [4]: 8.38 min
O=c1oc2cc(O)ccc2c2cc(O)ccc12 [Isourolithin  A] | 12.7 min | – | –
COc1cccc(OS(=O)(=O)O)c1O [1-Methyl-pyrogallol-O-sulfate] | – | – | LC retention time [3]: 4 min; LC retention time [4]: 1.96 min
O=C(O)Cc1ccccc1 [Phenylacetic acid] | – | – | LC retention time [3]: 7.64 min; LC retention time [4]: 4.65 min
COc1cccc(OC)c1O [2,6-Dimethoxyphenol] | – | 2.36 min | –
O=C1CCC(Cc2cccc(O)c2)O1 (centres undefined) | 10.6 min | – | –
COc1ccc(-c2oc3cc(O)cc(O)c3c(=O)c2O)cc1O [Tamarixetin] | – | 2.96 min | LC retention time [6]: 11.9 min
Nc1ccc(C(=O)O)cc1 [4-Aminobenzoic acid] | – | 1.53 min | LC retention time [5]: 2.08 min
OCC(Cc1cccc(O)c1)C(CO)Cc1cccc(O)c1 (centres undefined) [Enterodiol] | 13.5 min | – | LC retention time [6]: 10.6 min
O=c1oc2cc(OS(=O)(=O)O)ccc2c2ccc(O)cc12 [Urolithin A-3-sulfate] | 9.67 min | – | –
O=C(O)C=Cc1ccc(OS(=O)(=O)O)cc1 [p-Coumaric acid 4-O-sulfate] | – | – | LC retention time [3]: 5.25 min; LC retention time [4]: 3.78 min
O=C(O)C1OC(Oc2ccc3c(=O)c(-c4ccc(O)cc4)coc3c2)C(O)C(O)C1O (centres undefined) [Daidzein 7-O-glucuronide] | 7.51 min | – | –
O=S(=O)(O)Oc1ccc(C=Cc2cc(O)cc(O)c2)cc1 [Resveratrol 4'-sulfate] | 10 min | – | –
COc1ccc(C2Oc3cc(O)cc(O)c3CC2O)cc1O (centres undefined) [4'-O-methylepicatechin] | – | – | LC retention time [3]: 7.85 min

SMILES | LC retention time [1] | LC retention time [2] | also measured
O=Cc1c[nH]c2ccccc12 [Indole-3-carbaldehyde] | – | 2.32 min | –
NCCc1c[nH]c2ccccc12 [Tryptamine] | – | 1.51 min | LC retention time [5]: 2.51 min
COc1ccc(C(=O)O)cc1O [Isovanillic acid] | – | – | LC retention time [3]: 5.2 min; LC retention time [4]: 1.99 min
O=c1oc2cc(OS(=O)(=O)O)ccc2c2ccccc12 [Urolithin B-3-sulfate] | 12.7 min | – | –
CC(Oc1ccc(O)cc1)C(=O)O (single isomer, unassigned; (+)) [(+)-2-(4-Hydroxyphenoxy)propionic acid] | – | – | LC retention time [3]: 6.31 min; LC retention time [4]: 3.73 min
Cc1c(O)cc2c(c1O)C(=O)c1ccccc1C2=O [Rubiadin] | 23.8 min | – | –
Cc1ccc(O)c(OS(=O)(=O)O)c1 [4-Methylcatechol-2-O-sulfate] | – | – | LC retention time [3]: 5.96 min; LC retention time [4]: 3.83 min
Oc1ccc(CCc2cc(O)cc(O)c2)cc1 [Dihydroresveratrol] | 12.8 min | – | –
CC1(O)Cc2c(O)cc(O)cc2OC1c1ccc(O)c(O)c1 (centres undefined) [3-Methylepicatechin] | – | 1.99 min | –
CC(C)C(O)(CC(=O)O)C(=O)O (centres undefined) [2-Isopropylmalic acid] | – | 1.72 min | –
O=C(O)C=Cc1ccc(OS(=O)(=O)O)c(O)c1 [caffeic acid-4-O-sulfate] | – | – | LC retention time [3]: 5.28 min; LC retention time [4]: 5.5 min
C=C1CCC(O)CC1=CC=C1CCCC2(C)C1CCC2C(C)C=CC(C)C(C)(C)O (centres undefined) [25-Hydroxyvitamin-D2] | – | 5.07 min | –
O=C(O)CC(O)c1ccccc1 (centres undefined) [3-hydroxy-3-phenylpropionic acid] | – | 2.06 min | –
COc1cc(CC(CO)C(CO)Cc2ccc(O)c(OC)c2)ccc1O (single isomer, unassigned; (-)) [(-)-Secoisolariciresinol] | 11.5 min | 2.4 min | –
O=Cc1cccc(O)c1 [3-Hydroxybenzaldehyde] | – | – | LC retention time [5]: 3.72 min; LC retention time [3]: 5.91 min
O=S(=O)([O-])Oc1ccc(C2COc3cc(O)ccc3C2)cc1 (centres undefined) [Equol sulfate] | 11.6 min | – | –
Cc1cc2nc3c(=O)[nH]c(=O)nc-3n(CC(O)C(O)C(O)CO)c2cc1C (centres undefined) [Riboflavin] | – | 1.73 min | LC retention time [5]: 4.17 min
COc1cc(CC2COC(=O)C2Cc2ccc(O)c(OC)c2)ccc1O (single isomer, unassigned; (-)) [(-)-Matairesinol] | – | 2.86 min | –
Cn1c(=O)c2[nH]cnc2n(C)c1=O [Theophylline] | – | 1.5 min | LC retention time [5]: 3.05 min
COc1cc(C(C)=O)ccc1O [4'-Hydroxy-3'methoxyacetophenone] | – | 2.18 min | –
O=C(O)c1c(O)cccc1O [2,6-Dihydroxybenzoic acid] | 6.49 min | – | –
